From ChEMBL document CHEMBL5236551, “Andrographolide and its derivatives: Current achievements and future perspectives” (Eur J Med Chem, 2021)

Experiments:
Mus musculus = experiment: Anti-inflammatory activity in BALB/c mouse model of colitis assessed as suppression of DSS-induced NF-kappa-B p65 expression in colon tissue at 200 mg/kg, IG for 8 days relative to control; type: functional; settings: po, 192 h, time 8 day
[1] = Inhibition of NF-kappa-B signaling pathway in human HeLa cells assessed as decrease in phosphorylated NF-kappaB p65 level treated for 4 hrs by Western blot analysis; type: cell-based
Escherichia coli = experiment: Antibacterial activity against Escherichia coli assessed as bacterial growth inhibition incubated for 24 hrs; type: functional, organism-based
Staphylococcus aureus = experiment: Antibacterial activity against Staphylococcus aureus assessed as bacterial growth inhibition incubated for 24 hrs; type: functional, organism-based
Enterococcus faecalis = experiment: Antibacterial activity against Enterococcus faecalis assessed as bacterial growth inhibition incubated for 24 hrs; type: functional, organism-based
[2] = system: Human immunodeficiency virus 1; experiment: Antiviral activity against HIV-1 infected in human C8166 cells; type: functional, organism-based; settings: Human immunodeficiency virus 1, C8166
Rattus norvegicus [3] = experiment: Anti-fibrotic activity in rat model of unilateral ureteral obstruction-induced renal fibrosis assessed as inhibition rate at 0.15 mmol/Kg relative to control; type: functional; settings: Kidney
Rattus norvegicus [4] = experiment: Anti-fibrotic activity in rat model of bleomycin-induced lung fibrosis assessed as inhibition rate at 250 mg/kg relative to control; type: functional
Rattus norvegicus [5] = experiment: Anti-fibrotic activity in rat model of isoproterenol-induced myocardial fibrosis assessed as inhibition rate at 15 mg/kg relative to control; type: functional; settings: Myocardium
[6] = Cytotoxicity against human Lu1 cells assessed as cell growth inhibition by SRB assay; type: functional; settings: read-out: ED50 (the source's name)
P388 = experiment: Cytotoxicity against mouse P388 cells assessed as cell growth inhibition by SRB assay; type: functional; settings: read-out: ED50 (the source's name)
Col2 = experiment: Cytotoxicity against human Col2 cells assessed as cell growth inhibition by SRB assay; type: functional; settings: read-out: ED50 (the source's name)
MCF7 [7] = experiment: Cytotoxicity against human MCF7 cells assessed as cell growth inhibition by SRB assay; type: functional; settings: read-out: ED50 (the source's name)
KB = experiment: Cytotoxicity against human KB cells assessed as cell growth inhibition by SRB assay; type: functional; settings: read-out: ED50 (the source's name)
[8] = Cytotoxicity against rat ASK cells assessed as cell growth inhibition by SRB assay; type: functional; settings: read-out: ED50 (the source's name)
[9] = Antimigratory activity against human LX2 cells assessed as inhibition rate at 5 uM relative to control; type: functional; settings: LX-2
[10] = Antimigratory activity against Ang II-induced human Cardiac fibroblast cells assessed as inhibition rate at 0.63 uM relative to control; type: functional
[11] = Inhibition of TGF-beta1 induced mesenchymal transformation in human A549 cells assessed as inhibition rate at 0.63 uM relative to control; type: functional
K562 = experiment: Antiproliferative activity against human K562 cells assessed as cell growth inhibition measured after 24 hrs by MTT assay; type: functional, cell-based; settings: K562, 24 h
MCF7 [12] = experiment: Antiproliferative activity against human MCF7 cells assessed as cell growth inhibition measured after 24 hrs by MTT assay; type: functional, cell-based
Rattus norvegicus [13] = experiment: Anti-inflammatory activity against egg white-induced paw edema in rat model assessed as detumescence rate measured after 6 hrs relative to control; type: functional
HCT-116 = experiment: Antiproliferative activity against human HCT-116 cells assessed as cell growth inhibition measured after 24 hrs by MTT assay; type: functional
HepG2 = experiment: Antiproliferative activity against human HepG2 cells assessed as cell growth inhibition measured after 48 hrs by MTT assay; type: functional, cell-based; settings: HepG2, 48 h
NB-4 = experiment: Antiproliferative activity against human NB-4 cells assessed as cell growth inhibition measured after 48 hrs by MTT assay; type: functional, cell-based; settings: NB-4, 48 h
MGC-803 = experiment: Antiproliferative activity against human MGC-803 cells assessed as cell growth inhibition measured after 48 hrs by MTT assay; type: functional, cell-based; settings: MGC-803, 48 h
T-24 = experiment: Antiproliferative activity against human T24 cells assessed as cell growth inhibition measured after 48 hrs by MTT assay; type: functional, cell-based; settings: T-24, 48 h
J82 = experiment: Antiproliferative activity against human J82 cells assessed as cell growth inhibition measured after 48 hrs by MTT assay; type: functional, cell-based; settings: J82, 48 h
[14] = Antiproliferative activity against human NTUB1 cells assessed as cell growth inhibition measured after 48 hrs by MTT assay; type: functional, cell-based; settings: NTUB1, 48 h
MCF7 [15] = experiment: Antiproliferative activity against human MCF7 cells assessed as cell growth inhibition measured after 48 hrs by MTT assay; type: functional, cell-based; settings: MCF7, 48 h
A549 = experiment: Antiproliferative activity against human A549 cells assessed as cell growth inhibition measured after 48 hrs by MTT assay; type: functional, cell-based; settings: A549, 48 h
[16] = Antiproliferative activity against human HCT cell line assessed as cell growth inhibition measured after 48 hrs by MTT assay; type: functional, cell-based

Question: With `C=C1CCC2[C@](C)(COC(C)=O)[C@H](OC(C)=O)CC[C@@]2(C)[C@@H]1C/C=C1/C(=O)OC[C@H]1OC(C)=O` (stereo partly specified) as the molecule, how does the inhibition in vivo at 200 mg/kg (Mus musculus) read?
Answer: Its inhibition in vivo at 200 mg/kg is 50.4%.

Question: With `C=C1CC[C@@H]2[C@](C)(CO)[C@H](O)CC[C@@]2(C)[C@@H]1C/C=C1/C(=O)OC[C@@H]1Oc1ccc([N+](=O)[O-])cc1OC` as the molecule, how does the EC50 [1] read?
Answer: The EC50 was 2 µM.

Question: With `C=C1CCC2[C@](C)(CO)C(=O)CC[C@@]2(C)[C@@H]1C/C=C1/C(=O)OC[C@@H]1Oc1cccc2cccnc12` (stereo partly specified) as the molecule, how does the IC50 (Escherichia coli) read?
Answer: The IC50 was 27.9 µM.

Question: What about the IC50 (Staphylococcus aureus) of the same molecule?
Answer: Its IC50 is 27.6 µM.

Question: What about the IC50 (Enterococcus faecalis) of the same molecule?
Answer: The IC50 was 9.1 µM.

Question: With `C=C1CCC2[C@](C)(CO)/C(=N\O)CC[C@@]2(C)[C@@H]1/C=C/C1=CCOC1=O` (stereo partly specified) as the molecule, how does the IC50 [2] read?
Answer: Its IC50 is 40.9 µM.

Question: Which results are given for `C=C1CCC2[C@](C)(CO)[C@H](O)CC[C@@]2(C)[C@@H]1/C=C/C1=CC(=C\c2ccc(Cl)cc2)/OC1=O` (stereo partly specified)?
Answer: inhibition in vivo at 150 µmol/kg (Rattus norvegicus [3]): > 85%; inhibition in vivo at 250 mg/kg (Rattus norvegicus [4]): > 85%; inhibition in vivo at 15 mg/kg (Rattus norvegicus [5]): > 90%

Question: With `C=C1CC[C@@H]2[C@](C)(CO[Si](C)(C)C(C)(C)C)[C@H](OC(C)=O)CC[C@@]2(C)[C@@H]1CC(OC(C)=O)C1=CCOC1=O` (stereo partly specified) as the molecule, how does the EC50 [6] read?
Answer: The EC50 was 2.09 µM.

Question: What about the EC50 (P388) of the same molecule?
Answer: Its EC50 is 0.55 µM.

Question: And the EC50 (Col2)?
Answer: Its EC50 is 2 µM.

Question: What about the EC50 (MCF7 [7]) of the same molecule?
Answer: The EC50 was 2.13 µM.

Question: What about the EC50 (KB) of the same molecule?
Answer: The EC50 was 2.35 µM.

Question: And the EC50 [8]?
Answer: The EC50 was 1.98 µM.

Question: For `C[C@@]12CCC3[C@](C)(CO)[C@H](O)CC[C@@]3(C)[C@@H]1CC(C1=C/C(=C\c3ccc(Cl)cc3)OC1=O)O2` (stereo partly specified), which inhibition at 5 µM [9] is on record?
Answer: Its inhibition at 5 µM is greater than 60%.

Question: And the inhibition at 0.63 µM [10]?
Answer: The inhibition at 0.63 µM was greater than 65%.

Question: What about the inhibition at 0.63 µM [11] of the same molecule?
Answer: Its inhibition at 0.63 µM is greater than 70%.

Question: Which results are given for `C=C1CCC2[C@](C)(CO)[C@H](O)CC[C@@]2(C)[C@@H]1C/C=C1/C(=O)OC[C@@H]1Oc1cccc2cccnc12` (stereo partly specified)?
Answer: IC50 (Escherichia coli): 21.6 µM; IC50 (Staphylococcus aureus): 37.5 µM; IC50 (Enterococcus faecalis): 6.3 µM

Question: For `C=C1CCC2[C@]3(C)COC(c4ccc(OCc5cn(-c6ccc(C(C)=O)cc6)nn5)cc4)O[C@@H]3CC[C@@]2(C)[C@@H]1C/C=C1/C(=O)OCC1O` (stereo partly specified), which IC50 (K562) is on record?
Answer: The IC50 was 8 µM.

Question: With `C=C1CCC2[C@](C)(CO)[C@H](OC(=O)CCC(=O)OC(C)CCOc3no[n+]([O-])c3S(=O)(=O)c3ccccc3)CC[C@@]2(C)[C@@H]1/C=C/C1=CCOC1=O` (stereo partly specified) as the molecule, how does the IC50 (K562) read?
Answer: The IC50 was 1.55 µM.

Question: What about the IC50 (MCF7 [12]; MCF7, 24 h) of the same molecule?
Answer: Its IC50 is 2.91 µM.

Question: For `C=C1CCC2[C@](C)(CO)[C@H](O)CC[C@@]2(C)[C@@H]1CCC1=CCOC1=O` (stereo partly specified), which “inhibition (INH)” value (Rattus norvegicus [13]) is on record?
Answer: The value was 87.53%.

Question: With `C=C1CCC2[C@]3(C)COC(c4ccccc4Br)O[C@@H]3CC[C@@]2(C)[C@@H]1C/C=C1/C(=O)OC[C@H]1O` (stereo partly specified) as the molecule, how does the GI50 (MCF7 [12]; MCF7, time 24 hrs) read?
Answer: Its GI50 is 5.3 µM.

Question: And the GI50 (HCT-116)?
Answer: Its GI50 is 4.9 µM.

Question: For `CC1=C2[C@H]3O[C@]34CC[C@@H]3[C@](C)(COC(=O)c5ccccc5)[C@H](OC(=O)c5ccccc5)CC[C@@]3(C)[C@@H]4[C@H]3O[C@@]23OC1=O`, which IC50 (HepG2) is on record?
Answer: Its IC50 is 2.31 µM.

Question: What about the IC50 (NB-4) of the same molecule?
Answer: Its IC50 is 0.87 µM.

Question: What about the IC50 (MGC-803) of the same molecule?
Answer: Its IC50 is 1.85 µM.

Question: And the IC50 (T-24)?
Answer: Its IC50 is 1.04 µM.

Question: And the IC50 (J82)?
Answer: Its IC50 is 2.04 µM.

Question: What about the IC50 [14] of the same molecule?
Answer: The IC50 was 0.55 µM.

Question: And the IC50 (MCF7 [15])?
Answer: Its IC50 is 1.21 µM.

Question: What about the IC50 (A549) of the same molecule?
Answer: Its IC50 is 2.03 µM.

Question: What about the IC50 [16] of the same molecule?
Answer: The IC50 was 0.94 µM.
